# PubChem BioAssay (NCI)
# Several values for one entry are separate records, joined by “and”; a condition that tells them apart may be missing. Equal entries are not always repeated.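 Exposure lasted 48 hours, with cells grown in 96-well plates and compounds tested at five concentrations. The concentration for 50% growth inhibition is given as GI50. TGI marks complete inhibition of growth.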
# Tests used:
# Assay in all cases: growth of human tumour cells (NCI), 48 h
# CAKI-1 renal = tested on: CAKI-1 renal
# HCT-15 colon = tested on: HCT-15 colon
# SK-OV-3 ovarian = tested on: SK-OV-3 ovarian
# UO-31 renal = tested on: UO-31 renal
# OVCAR-8 ovarian = tested on: OVCAR-8 ovarian
# SNB-19 CNS = tested on: SNB-19 CNS
# UACC-62 melanoma = tested on: UACC-62 melanoma
# HOP-62 NSCLC = tested on: HOP-62 NSCLC
# A498 renal = tested on: A498 renal
# MCF7 breast = tested on: MCF7 breast
Compound,GI50 (CAKI-1 renal),TGI (CAKI-1 renal),GI50 (HCT-15 colon),TGI (HCT-15 colon),GI50 (SK-OV-3 ovarian),TGI (SK-OV-3 ovarian),GI50 (UO-31 renal),TGI (UO-31 renal),GI50 (OVCAR-8 ovarian),TGI (OVCAR-8 ovarian),GI50 (SNB-19 CNS),TGI (SNB-19 CNS),GI50 (UACC-62 melanoma),TGI (UACC-62 melanoma),GI50 (HOP-62 NSCLC),TGI (HOP-62 NSCLC),GI50 (A498 renal),TGI (A498 renal),GI50 (MCF7 breast),TGI (MCF7 breast)
CCC(=O)Nc1ccccc1C#C/C=C\C#Cc1ccccc1C(F)(F)F,1.53 µM,> 30.4 µM,3.9 µM,> 50 µM,1.7 µM,> 50 µM,2.59 µM,> 50 µM,8.04 µM,> 50 µM,5.52 µM,> 50 µM,2.38 µM,> 50 µM,2.42 µM,> 50 µM,1.68 µM,10.7 µM,2.61 µM,> 36.1 µM
Cc1cc(C(=O)NC(CCC(=O)O)C(=O)O)sc1CCC1CNc2nc(N)[nH]c(=O)c2C1 (stereo not given),< 0.018 µM and 0.0234 µM,> 100 µM,0.0502 µM and 0.33 µM,> 100 µM,0.0103 µM and 0.0181 µM,> 100 µM,0.0319 µM and 0.0592 µM,> 100 µM,< 0.0215 µM and 0.0454 µM,> 100 µM,0.0783 µM and 0.606 µM,> 100 µM,0.049 µM and 0.0557 µM,> 100 µM,0.0533 µM and 0.0806 µM,> 100 µM,0.199 µM and 0.0945 µM,> 100 µM,< 0.0114 µM and 0.0346 µM,> 100 µM
COc1cc(N2CCN(C(C)C)CC2)ccc1Nc1nc(Nc2cccc(F)c2C(=O)O)c2cc[nH]c2n1,> 25 µM,> 25 µM,> 25 µM,> 25 µM,> 25 µM,> 25 µM,> 25 µM,> 25 µM,> 25 µM,> 25 µM,> 25 µM,> 25 µM,> 25 µM,> 25 µM,> 25 µM,> 25 µM,> 25 µM,> 25 µM,> 25 µM,> 25 µM
COc1cc2ncnc(Nc3ccc4c(cnn4Cc4ccccc4)c3)c2cc1OC,0.385 µM,> 25 µM,> 17.4 µM,> 25 µM,0.534 µM,> 25 µM,3.96 µM,> 25 µM,> 17.5 µM,> 25 µM,> 25 µM,> 25 µM,> 25 µM,> 25 µM,> 25 µM,> 25 µM,> 18.6 µM,> 25 µM,> 25 µM,> 25 µM
Cc1ccc(C2=C(c3ccc(C)cc3)C3(c4ccc(C)cc4)C4C(=O)c5ccccc5C(=O)C4C2(c2ccc(C)cc2)S3=O)cc1 (stereo not given),> 100 µM,> 100 µM,> 100 µM,> 100 µM,> 100 µM,> 100 µM,> 100 µM,> 100 µM,> 100 µM,> 100 µM,63.7 µM,> 100 µM,> 100 µM,> 100 µM,73.7 µM,> 100 µM,> 100 µM,> 100 µM,> 100 µM,> 100 µM
Cc1[nH]c(-c2nc3ccccc3[nH]2)c(C)c1C(=O)NC(C)C1CCCCC1 (stereo not given),10.4 µM,22.2 µM,4.77 µM,19.6 µM,15.3 µM,34.4 µM,11.9 µM,25.6 µM,16.5 µM,39.5 µM,10.6 µM,24.8 µM,6.95 µM,21.6 µM,12.7 µM,38.3 µM,7.71 µM,20.1 µM,4.01 µM,19.2 µM
O=c1c(Br)cc2c(-c3ccccc3)c3cc(Br)c(O)c(Br)c3oc-2c1Br,–,> 100 µM,–,> 100 µM,–,> 100 µM,–,> 100 µM,–,> 100 µM,–,> 100 µM,–,> 100 µM,–,> 100 µM,–,> 100 µM,–,> 100 µM
COc1ccc2c(Cl)cc(NC(=O)Nc3c(C)cccc3C)nc2c1,5.27 µM,> 100 µM,27.3 µM,> 100 µM,4.37 µM,83 µM,3 µM,12.7 µM,24.7 µM,> 100 µM,72.7 µM,> 100 µM,64.3 µM,> 100 µM,3.91 µM,15.3 µM,2.9 µM,22.4 µM,56 µM,> 100 µM
CCCCNC(=O)c1cc(NCc2cc(O)ccc2O)ccc1O,10.8 µM,23.8 µM,10.7 µM,32.4 µM,67.5 µM,> 100 µM,2.82 µM,12.1 µM,18.1 µM,68.8 µM,41.4 µM,> 100 µM,13.7 µM,27.1 µM,71.8 µM,> 100 µM,41.1 µM,> 100 µM,12.4 µM,39.8 µM
N#Cc1c(N)nc(N)nc1N[C@H](c1nc2c(F)ccc(Cl)c2c(=O)n1-c1cccnc1)C1CC1,1.69 µM,26.9 µM,14.9 µM,56.7 µM,2.41 µM,11.4 µM,2.34 µM,21.1 µM,15.9 µM,44.3 µM,13 µM,28.6 µM,1.6 µM,> 100 µM,3.62 µM,> 100 µM,0.249 µM,1.55 µM,2.04 µM,> 100 µM
CN(C)CC(C(=O)Cc1ccccc1)c1ccccc1 (stereo not given),1.57 µM,3.01 µM,1.76 µM,3.95 µM,18.4 µM,36.2 µM,1.69 µM,3.32 µM,6.75 µM,23.1 µM,15 µM,30 µM,6.16 µM,20.1 µM,6.87 µM,21 µM,12.4 µM,25 µM,0.369 µM,1.67 µM
CCc1cc2ncc(CN3CCN(c4ccc(C(=O)NC)nc4)CC3)cc2[nH]c1=O,24.2 µM,> 100 µM,65.4 µM,> 100 µM,> 100 µM,> 100 µM,29.5 µM,> 100 µM,> 100 µM,> 100 µM,99.7 µM,> 100 µM,39.2 µM,> 100 µM,55.7 µM,> 100 µM,> 100 µM,> 100 µM,29.4 µM,> 100 µM
